ChEMBL document CHEMBL1121960, “Importance of the aromatic ring in adrenergic amines. 8. 2-(Aminomethyl)-trans-2-decalols as inhibitors of norepinephrine N-methyltransferase” (J Med Chem, 1982)

T1: Phenylethanolamine N-methyltransferase (Bos taurus, UniProt P10938)
T1 sequence (P10938 whole entry): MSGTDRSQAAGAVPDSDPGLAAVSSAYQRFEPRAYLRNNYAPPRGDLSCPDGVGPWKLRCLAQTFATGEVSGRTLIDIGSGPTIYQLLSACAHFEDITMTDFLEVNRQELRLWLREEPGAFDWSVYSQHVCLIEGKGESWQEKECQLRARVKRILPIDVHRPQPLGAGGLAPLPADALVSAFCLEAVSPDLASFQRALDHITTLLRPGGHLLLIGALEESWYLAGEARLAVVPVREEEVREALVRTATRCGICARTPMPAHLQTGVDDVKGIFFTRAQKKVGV


Columns and labels:
[1] = biological target: T1, Phenylethanolamine N-methyltransferase; experiment: Tested for inhibitory activity against bovine adrenal norepinephrine N-methyl-transferase using phenylethanolamine as substrate
[2] = Vmax was determined; format: ADME
[3] = compound: NC[C@@]1(O)CCC2CCCCC2C1; experiment: (§1) Tested for inhibitory constant against bovine adrenal norepinephrine N-methyl-transferase
[4] = compound: NC[C@]1(O)CCC2CCCCC2C1; experiment: as §1
[5] = compound: NCC1(O)CCCCCCCCCC1; experiment: as §1

Ki [1] | Vmax [2] | Molecule | Km [3] | Km [4] | Km [5]
3.8 µM | 0.024 nmol/min/mg | NC[C@]1(O)CCC2CCCCC2C1 (some centres undefined) |  |  | 
3.56 µM | 0.04 nmol/min/mg | NCC1(O)CCCCCCCCCC1 |  |  | 
5.63 µM | 0.03 nmol/min/mg | NC[C@@]1(O)CCC2CCCCC2C1 (some centres undefined) |  |  | 
 |  | Phenylethanolamine N-methyltransferase (Bos taurus), P10938 (protein) MSGTDRSQAAGAVPDSDPGLAAVSSAYQRFEPRAYLRNNYAPPRGDLSCPDGVGPWKLRCLAQTFATGEVSGRTLIDIGSGPTIYQLLSACAHFEDITMTDFLEVNRQELRLWLREEPGAFDWSVYSQHVCLIEGKGESWQEKECQLRARVKRILPIDVHRPQPLGAGGLAPLPADALVSAFCLEAVSPDLASFQRALDHITTLLRPGGHLLLIGALEESWYLAGEARLAVVPVREEEVREALVRTATRCGICARTPMPAHLQTGVDDVKGIFFTRAQKKVGV | 4.7 µM | 5.7 µM | 6.8 µM
